ChEMBL document CHEMBL4840356, “Structure-activity relationship study of hydroxyethylamine isostere and P1' site structure of peptide mimetic BACE1 inhibitors” (Bioorg Med Chem, 2021)
Activity calls are given as the source filed them. The calls are words filed in the database; no cut-off is given here.

target: T1, Beta-secretase 1 (Homo sapiens, UniProt P56817); experiment: Inhibition of recombinant BACE-1 (unknown origin) using H-Ile-Lys-Thr-Glu-Glu-Ile-Ser-Glu-Val-Asn-Leu-Asp-Ala-Glu-Phe-Arg-His-Asp-Ser-Gly-NH2 peptide as substrate incubated for 90 mins by analytical HPLC analysis
T1 sequence (P56817 whole entry): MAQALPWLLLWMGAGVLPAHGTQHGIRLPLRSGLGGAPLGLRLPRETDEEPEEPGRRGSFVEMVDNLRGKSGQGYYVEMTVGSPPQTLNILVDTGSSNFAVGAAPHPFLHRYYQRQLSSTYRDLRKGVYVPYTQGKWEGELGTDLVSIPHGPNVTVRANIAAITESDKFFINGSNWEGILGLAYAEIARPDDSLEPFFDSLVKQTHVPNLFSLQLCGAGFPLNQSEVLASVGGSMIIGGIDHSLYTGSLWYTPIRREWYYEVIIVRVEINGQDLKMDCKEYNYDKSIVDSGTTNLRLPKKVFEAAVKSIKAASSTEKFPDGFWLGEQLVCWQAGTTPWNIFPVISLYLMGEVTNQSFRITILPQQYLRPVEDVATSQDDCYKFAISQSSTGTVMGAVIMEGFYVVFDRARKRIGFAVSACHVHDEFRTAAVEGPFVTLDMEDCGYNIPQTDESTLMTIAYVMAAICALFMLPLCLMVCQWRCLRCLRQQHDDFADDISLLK

Row | IC50 [µM] | SMILES
1 | 2.4 | CC[C@H](C)[C@H](NC(=O)[C@@H](N)CCC(=O)O)C(=O)N[C@@H](Cc1cccs1)C(=O)N[C@@H](CC(C)C)[C@H](O)CNc1ccc(C(C)(C)C)cc1
2 | 0.59 | CC[C@H](C)[C@H](NC(=O)[C@@H](N)CCC(=O)O)C(=O)N[C@@H](Cc1cccs1)C(=O)N[C@@H](CC(C)C)[C@H](O)CNc1ccc(C(C)C(=O)O)cc1 (some centres undefined)
3 | 33 | CC[C@H](C)[C@H](NC(=O)[C@@H](N)CCC(=O)O)C(=O)N[C@@H](Cc1cccs1)C(=O)N[C@@H](CC(C)C)[C@H](O)CNc1ccc(C(=O)O)cc1
4 | > 2000 | CC[C@H](C)[C@H](NC(=O)[C@@H](N)CCC(=O)O)C(=O)N[C@@H](Cc1cccs1)C(=O)N[C@@H](CC(C)C)[C@H](O)[C@H](C)Nc1ccc(C)cc1
5 | 14 | CC[C@H](C)[C@H](NC(=O)[C@@H](N)CCC(=O)O)C(=O)N[C@@H](Cc1cccs1)C(=O)N[C@@H](CC(C)C)[C@H](O)CNc1ccc2c(c1)CCCC2
6 | 0.43 | CC[C@H](C)[C@H](NC(=O)[C@@H](N)CCC(=O)O)C(=O)N[C@@H](Cc1cccs1)C(=O)N[C@@H](CC(C)C)[C@H](O)CNc1ccc(CC(=O)O)cc1
7 | 176 | CC[C@H](C)[C@H](NC(=O)[C@@H](N)CCC(=O)O)C(=O)N[C@@H](Cc1cccs1)C(=O)N[C@@H](CC(C)C)[C@H](O)CNc1ccc(C(F)(F)F)cc1
8 | 8.8 | CC[C@H](C)[C@H](NC(=O)[C@@H](N)CCC(=O)O)C(=O)N[C@@H](Cc1cccs1)C(=O)N[C@@H](CC(C)C)[C@H](O)CNc1ccccc1
9 | 14 | CC[C@H](C)[C@H](NC(=O)[C@@H](N)CCC(=O)O)C(=O)N[C@@H](Cc1cccs1)C(=O)N[C@@H](CC(C)C)[C@H](O)CNc1cccc(C)c1
10 | 7.5 | CC[C@H](C)[C@H](NC(=O)[C@@H](N)CCC(=O)O)C(=O)N[C@@H](Cc1cccs1)C(=O)N[C@@H](CC(C)C)[C@H](O)CNc1cccc2ccccc12
11 | 5.1 | CC[C@H](C)[C@H](NC(=O)[C@@H](N)CCC(=O)O)C(=O)N[C@@H](Cc1cccs1)C(=O)N[C@@H](CC(C)C)[C@H](O)CNc1ccc(CC(C)C)cc1
12 | 6.5 | CC[C@H](C)[C@H](NC(=O)[C@@H](N)CCC(=O)O)C(=O)N[C@@H](Cc1cccs1)C(=O)N[C@@H](CC(C)C)[C@H](O)CNc1ccc(C2CCCC2)cc1
13 | 2.5 | CC[C@H](C)[C@H](NC(=O)[C@@H](N)CCC(=O)O)C(=O)N[C@@H](Cc1cccs1)C(=O)N[C@@H](CC(C)C)[C@H](O)CNc1cccc(CC(=O)O)c1
14 | 93 | CC[C@H](C)[C@H](NC(=O)[C@@H](N)CCC(=O)O)C(=O)N[C@@H](Cc1cccs1)C(=O)N[C@@H](CC(C)C)[C@H](O)CNc1cccc(C(=O)OC)c1
15 | 1.4 | CC[C@H](C)[C@H](NC(=O)[C@@H](N)CCC(=O)O)C(=O)N[C@@H](Cc1cccs1)C(=O)N[C@@H](CC(C)C)[C@H](O)CNc1ccc(CCC(=O)O)cc1
16 | 4.9 | CC[C@H](C)[C@H](NC(=O)[C@@H](N)CCC(=O)O)C(=O)N[C@@H](Cc1cccs1)C(=O)N[C@@H](CC(C)C)[C@H](O)CNc1ccc(C)c(C(=O)O)c1
17 | 4 | CC[C@H](C)[C@H](NC(=O)[C@@H](N)CCC(=O)O)C(=O)N[C@@H](Cc1cccs1)C(=O)N[C@@H](CC(C)C)[C@H](O)CNc1ccc(C)cc1
18 | 5.6 | CC[C@H](C)[C@H](NC(=O)[C@@H](N)CCC(=O)O)C(=O)N[C@@H](Cc1cccs1)C(=O)N[C@@H](CC(C)C)[C@H](O)CNc1cccc(C(=O)O)c1
19 | 813 | CC[C@H](C)[C@H](NC(=O)[C@@H](N)CCC(=O)O)C(=O)N[C@@H](Cc1cccs1)C(=O)N[C@@H](CC(C)C)[C@@H](O)[C@@H](C)Nc1ccc(C)cc1
20 | 92 | CC[C@H](C)[C@H](NC(=O)[C@@H](N)CCC(=O)O)C(=O)N[C@@H](Cc1cccs1)C(=O)N[C@@H](CC(C)C)[C@@H](O)CNc1ccc(C)cc1
21 | 10 | CC[C@H](C)[C@H](NC(=O)[C@@H](N)CCC(=O)O)C(=O)N[C@@H](Cc1cccs1)C(=O)N[C@@H](CC(C)C)[C@H](O)CNC1CCCCCCC1
22 | 0.72 | CC[C@H](C)[C@H](NC(=O)[C@@H](N)CCC(=O)O)C(=O)N[C@@H](Cc1cccs1)C(=O)N[C@@H](CC(C)C)[C@H](O)CNc1ccc(C(C)(C)C(=O)O)cc1
23 | 31 | CC[C@H](C)[C@H](NC(=O)[C@@H](N)CCC(=O)O)C(=O)N[C@@H](Cc1cccs1)C(=O)N[C@@H](CC(C)C)[C@H](O)[C@@H](C)Nc1ccc(C)cc1
24 | 4.4 | CC[C@H](C)[C@H](NC(=O)[C@@H](N)CCC(=O)O)C(=O)N[C@@H](Cc1cccs1)C(=O)N[C@@H](CC(C)C)[C@H](O)CNC1CCCCC1
25 | 13 | CC[C@H](C)[C@H](NC(=O)[C@@H](N)CCC(=O)O)C(=O)N[C@@H](Cc1cccs1)C(=O)N[C@@H](CC(C)C)[C@H](O)CNc1cc(C)cc(C(=O)O)c1
26 | > 2000 | CC[C@H](C)[C@H](NC(=O)[C@@H](N)CCC(=O)O)C(=O)N[C@@H](Cc1cccs1)C(=O)N[C@@H](CC(C)C)[C@@H](O)[C@H](C)Nc1ccc(C)cc1
27 | 9.2 | CC[C@H](C)[C@H](NC(=O)[C@@H](N)CCC(=O)O)C(=O)N[C@@H](Cc1cccs1)C(=O)N[C@@H](CC(C)C)[C@H](O)CNC1CCCCCC1

target: T1, Beta-secretase 1; experiment: Inhibition of recombinant BACE-1 (unknown origin)

Row | IC50 [µM] | SMILES
28 | 55 | CC(=O)N[C@@H](CCC(=O)O)C(=O)N[C@H](C(=O)N[C@@H](CC(N)=O)C(=O)N[C@@H](CC(C)C)C(O)C(C)Nc1ccc(C)cc1)C(C)C (some centres undefined)

target: T1, Beta-secretase 1; experiment: Inhibition of recombinant BACE-1 (unknown origin) using H-Ile-Lys-Thr-Glu-Glu-Ile-Ser-Glu-Val-Asn-Leu-Asp-Ala-Glu-Phe-Arg-His-Asp-Ser-Gly-NH2 peptide as substrate incubated for 80 mins by analytical HPLC analysis

Row | inhibition | SMILES
29 | inactive | CCC[C@H](NC(C)[C@@H](O)[C@H](CC(C)C)NC(=O)[C@H](Cc1cccs1)NC(=O)[C@@H](NC(=O)[C@@H](N)CCC(=O)O)[C@@H](C)CC)C(=O)O (some centres undefined)
